Experimental findings from US20230174484A1, “ANTAGONISTS OF GPR39 PROTEIN” (Oregon Health & Science University, priority 2020, published 2023) are described below.

Where only a bound is given, the exact number is not on record here.

This test has as its target T1, human GPR39 receptor (Homo sapiens, UniProt O43194).
T1 construct: PC3 Cells, Expressing the Endogenous Human GPR39 Receptor; endogenous in cells; host or cells: PC3 (human prostate adenocarcinoma) cells
T1 sequence (O43194 1-453): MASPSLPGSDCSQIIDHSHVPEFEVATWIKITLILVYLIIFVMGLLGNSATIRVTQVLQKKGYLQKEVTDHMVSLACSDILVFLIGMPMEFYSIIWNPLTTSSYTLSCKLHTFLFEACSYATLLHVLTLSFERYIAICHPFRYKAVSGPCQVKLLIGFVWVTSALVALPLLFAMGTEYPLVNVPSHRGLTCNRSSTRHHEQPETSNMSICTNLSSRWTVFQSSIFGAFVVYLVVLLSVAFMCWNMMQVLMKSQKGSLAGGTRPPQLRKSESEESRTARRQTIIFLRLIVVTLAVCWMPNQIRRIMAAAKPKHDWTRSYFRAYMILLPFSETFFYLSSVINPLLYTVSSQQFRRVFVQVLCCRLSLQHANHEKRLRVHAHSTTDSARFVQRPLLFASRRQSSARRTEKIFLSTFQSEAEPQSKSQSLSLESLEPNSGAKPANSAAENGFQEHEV
The test is described as follows: Measurement of intracellular calcium response in PC3 cells (FLIPR), antagonism of the C3 agonist response. The test is classed as cell-based. Particulars: for Ki: functional pKi (modified Cheng-Prusoff), inhibition of the C3 (TC-G 1008) response at EC90, 30 μM ZnCl2, read-out: fpKi activity. The protocol:
Human prostate adenocarcinoma (PC3) cells endogenously expressing human GPR39 receptor were seeded into black walls clear-base 384-well plates at a density of 7,500 cells per well in DM EM (Low Glucose) supplemented with 10% heat-inactivated foetal bovine serum and 1% of Pen/Strep and grown overnight at 37° C., 5% CO2. After washing with assay buffer (20 mM HEPES, 137 mM NaCI, 5.4 mM KCI, 10 mM glucose, 0.8 mM MgSO4, 1.3 mM CaCl2, 0.3 mM Na2HPO4, 0.4 mM KH2PO4 4.2 mM NaHCO3, pH 7.4), cells were incubated with Calcium-6 probe (Molecular Devices) at 37° C. for 2h and then equilibrated at RT for 30 minutes on metal block. The fluorescence was measured in real time by Fluorometric Imaging Plate Reader (FLIPR TETRA, Molecular Devices) (excitation wavelength at 470-495 nm, emission wavelength at 515-575 nm).
Compounds of invention were serially diluted in neat DMSO at 1000 fold concentrations and plated into 384-well plates and then 200-fold diluted in assay buffer containing 150 uM ZnCl2 (30 μM final concentration) and […].
Fluorescence was monitored throughout the run assay. The peak of Ca2+stimulation (baseline subtracted) was expressed as percentage of the maximal inhibition of the EC90 C3 response and was plotted versus the concentration of test compound. Curve fitting and IC50 estimations are carried out using a four-parameter logistic model using XLfit Software.
The potency of compounds was reported as functional pKi (—Log10Ki) obtained using the modified Cheng-Prusoff relationship (Cheng, Y., Prusoff, W. H. 1973.)
fKi =IC50/(1+[L]/EC50) where IC50 is the concentration of antagonist required for 50% inhibition of the maximum response, [L] is the concentration of the agonist used (EC90) and EC50 is the concentration of agonist need to induced 50% of the maximum response (obtained in each experimental plate).
An fpKi less than 5.2 is reported as “+/±”. An fpKi ranging from 5.2 to 5.9 is reported as “+”. An fpKi from 6.0 to 6.5 is reported as “++”. An fpKi from 6.6 to 7.2 is reported as “+++”. An fpKi equal to or greater than 7.3 is reported as “++++”.
(In general: A change in cytosolic calcium serves as a functional read-out for many receptors and channels.)

For `O=C(Nc1ccc(C(=O)N2CCCCC2)c(N2CCCCCC2)c1)C1CC1` [Example 35, N-(3-(azepan-1-yl)-4-(piperidine-1-carbonyl)phenyl)cyclopropanecarboxamide], the Ki was in the range of 63.1 to 251 nM.
Still for that read-out and setting: for `O=C(Nc1ccc(C(=O)N2CCOC(C(F)(F)F)C2)c(N2CCCC2)c1)C1CC1` (stereo not drawn) [Example 166, N-[3-pyrrolidin-1-yl-4-[2-(trifluoromethyl)morpholine-4-carbonyl]phenyl]cyclopropanecarboxamide] the value was 1260 to 6310 nM; for `CN1CCN(C(=O)c2ccc(NC(=O)C3CC3)cc2N2CCCCCC2)C(c2cccs2)C1` (racemic) [Example 69c, N-(3-(azepan-1-yl)-4-(4-methyl-2-(thiophen-2-yl)piperazine-1-carbonyl)phenyl) cyclopropane carboxamide], not above 50.1 nM.
Regarding `CCCN1CCN(C(=O)c2ccc(NC(=O)C3CC3)cc2N2CCCC2)CC1` [Example 16, N-[4-(4-propylpiperazine-1-carbonyl)-3-(pyrrolidin-1-yl)phenyl] Cyclopropanecarboxamide], the Ki was 63.1 to 251 nM.
Still for that read-out and setting: the result for `CN1CCN(C(=O)c2ccc(NC(=O)C3CC3)cc2N2CCC(C(F)(F)F)C2)C(c2ccccc2)C1` (single isomer, unassigned) [Example 199d, (2S, 3R) or (2R, 3S) or (2R, 3R) or (2S, 3S) N-[4-(4-methyl-2-phenylpiperazine-1-carbonyl)-3-[3-(trifluoromethyl)pyrrolidin-1-yl]phenyl]cyclopropanecarboxamide] reads 316 to 1000 nM; that for `CCCN1CCN(C(=O)c2ccc(NC(=O)C3CC3)cc2N2CCC(C)(C)CC2)CC1` [Example 17, N-(3-(4,4-dimethylpiperidin-1-yl)-4-(4-propylpiperazine-1-carbonyl)phenyl)cyclopropanecarboxamide], 63.1 to 251 nM.
For `CN(C)CCSc1nnc(-c2ccc(NC(=O)C3CC3)cc2N2CCCCCC2)n1C` [Example 111, N-[3-(azepan-1-yl)-4-[5-[2-(dimethylamino)ethylsulfanyl]-4-methyl-1,2,4-triazol-3-yl]phenyl]Cyclopropanecarboxamide], the Ki lay within 1260 to 6310 nM.
The same measure, in the same setting: for `CN1CCN(C(=O)c2ccc(NC(=O)C3CC3)cc2N2CCCC2)C(c2cccc(F)c2)C1` (single isomer, unassigned) [Example 88a, N-[4-[2-(3-fluorophenyl)-4-methylpiperazine-1-carbonyl]-3-pyrrolidin-1-ylphenyl]cyclopropanecarboxamide] the value was 63.1 to 251 nM; for `CN1CCN(C(=O)c2ccc(NC(=O)C3CC3)cc2N2CCCC2)C(c2cccc(F)c2)C1` (racemic) [Example 88c, N-[4-[2-(3-fluorophenyl)-4-methylpiperazine-1-carbonyl]-3-pyrrolidin-1-ylphenyl]cyclopropanecarboxamide], 63.1 to 251 nM.
Same read-out and setting: the result for `CCCN1CCN(C(=O)c2ccc(NC(=O)C3CC3)nc2N2CCCCCC2)CC1` [Example 108] reads 63.1 to 251 nM; that for `CN1CCN(C(=O)c2ccc(NC(=O)C3CC3)nc2N2CCCC(F)(F)C2)C(c2ccccc2)C1` (racemic) [Example 144, N-[6-(3,3-difluoropiperidin-1-yl)-5-(4-methyl-2-phenylpiperazine-1-carbonyl)pyridin-2-yl]cyclopropanecarboxamide], 63.1 to 251 nM.
In the case of `O=C(Nc1ccc(C(=O)N2CCN(Cc3ccccc3)CC2)c(N2CCCCCC2)c1)C1CC1` [Example 50, N-(3-(azepan-1-yl)-4-(4-benzylpiperazine-1-carbonyl)phenyl)cyclopropanecarboxamide], the Ki lay within 63.1 to 251 nM.
The same measure, in the same setting: the result for `CC1CN(C(=O)c2ccc(NC(=O)C3CC3)cc2N2CCCCCC2)CCN1C` (stereo not drawn) [Example 55, N-[3-(azepan-1-yl)-4-(3,4-dimethylpiperazine-1-carbonyl)phenyl]cyclopropanecarboxamide] reads 316 to 1000 nM; that for `CN1CCN(C(=O)c2ccc(NC(=O)C3CC3)cc2N2CCCC2)C(c2cccc(Cl)c2)C1` (racemic) [Example 171c, N-[4-[2-(3-chlorophenyl)-4-methylpiperazine-1-carbonyl]-3-pyrrolidin-1-ylphenyl]cyclopropanecarboxamide], not above 50.1 nM; that for `CN1CCN(C(=O)c2ccc(NC(=O)C3CC3)cc2N2CCCC2)C(c2cccnc2)C1` (racemic) [Example 173, N-[4-(4-methyl-2-pyridin-3-ylpiperazine-1-carbonyl)-3-pyrrolidin-1-ylphenyl]cyclopropanecarboxamide], 316 to 1000 nM.
`O=C(Nc1ccc(C(=O)N2CCS(=O)(=O)CC2)c(N2CCCC2)c1)C1CC1` [Example 60, N-[4-(1,1-dioxo-1,4-thiazinane-4-carbonyl)-3-pyrrolidin-1-ylphenyl] Cyclopropanecarboxamide]: the Ki was 63.1 to 251 nM.
Still for that read-out and setting: the result for `CCCN1CCN(C(=O)c2ccc(NC(=O)C3CC3)cc2-n2ccc(C(F)(F)F)n2)CC1` [Example 158, N-[4-(4-propylpiperazine-1-carbonyl)-3-[3-(trifluoromethyl)pyrazol-1-yl]phenyl]cyclopropanecarboxamide] reads not above 50.1 nM.
As to `CNc1nc(NCc2ccc(NS(C)(=O)=O)cc2Cl)cc(-c2ccccn2)n1` [Example C3, reference compound], the EC90 (PC-3, hGPR39 receptor agonist, calcium response, read-out: EC90 (concentration producing 90% of the maximal response)) turned out to be 1500 nM.
Take `CN1CCN(C(=O)c2ccc(NC(=O)C3CC3)cc2N2CCOCC2)C(c2ccccc2)C1` (stereo not drawn) [Example 200, N-[4-(4-methyl-2-phenylpiperazine-1-carbonyl)-3-morpholin-4-ylphenyl]cyclopropanecarboxamide]: the Ki was in the range of 1260 to 6310 nM.
In the case of `O=C(Nc1ccc(C(=O)N2CCS(=O)(=O)CC2)c(-n2ccc(C(F)(F)F)n2)c1)C1CC1` [Example 181, N-[4-(1,1-dioxo-1,4-thiazinane-4-carbonyl)-3-[3-(trifluoromethyl)pyrazol-1-yl]phenyl]cyclopropanecarboxamide], the Ki was not above 50.1 nM.
For `CN1CCN(C(=O)c2ccc(NC(=O)C3CC3)cc2N2CCCC2)C(c2ccccc2)C1` (single isomer, unassigned) [Example 62a, (2R or 2S) n-[4-(4-methyl-2-phenylpiperazine-1-carbonyl)-3-pyrrolidin-1-ylphenyl] Cyclopropanecarboxamide], the Ki was not above 50.1 nM.
On the same count and under the same terms, the result for `CN1CCN(C(=O)c2ccc(NC(=O)C3CC3)cc2N2CCCC2)C(c2ccncc2Cl)C1` (racemic) [Example 174, N-[4-[2-(3-chloropyridin-4-yl)-4-methylpiperazine-1-carbonyl]-3-pyrrolidin-1-ylphenyl]cyclopropanecarboxamide] reads 63.1 to 251 nM.
Turning to `CCCN1CCN(C(=O)c2ccc(NC(=O)C3CC3)cc2N2C[C@@H](C)C[C@H](C)C2)CC1` (relative stereo) [Example 14b], the Ki lay within 63.1 to 251 nM.
Same read-out and setting: the result for `O=C(Nc1ccc(C(=O)N2CCC(C(F)(F)F)CC2)c(N2CCCC2)n1)C1CC1` [Example 107, N-[6-pyrrolidin-1-yl-5-[4-(trifluoromethyl)piperidine-1-carbonyl]pyridin-2-yl]Cyclopropanecarboxamide] reads not above 50.1 nM; that for `CN1CCN(C(=O)c2ccc(NC(=O)C3CC3)cc2N2CCCCCC2)C(C(F)(F)F)C1` (stereo not drawn) [Example 75, N-[3-(azepan-1-yl)-4-[4-methyl-2-(trifluoromethyl)piperazine-1-carbonyl]phenyl]Cyclopropanecarboxamide], 316 to 1000 nM.
Still for that read-out and setting: the result for `CCCN1CCN(C(=O)c2ccc(NC(=O)C3CC3)cc2N2CC[C@@H](C(C)C)C2)CC1` [Example 2, (S)-N-(3-(3-isopropylpyrrolidin-1-yl)-4-(4-propylpiperazine-1-carbonyl)phenyl)cyclopropanecarboxamide] reads not above 50.1 nM; that for `CCCN1CCN(C(=O)c2ccc(NC(=O)C3CC3)cc2-n2ccc(C)c2)CC1` [Example 9, N-[3-(3-methylpyrrol-1-yl)-4-(4-propylpiperazine-1-carbonyl)phenyl] Cyclopropanecarboxamide], 1260 to 6310 nM.
